These results are taken from US11104680B2, “1,5-dihydro-4H-pyrazolo[3,4-d]pyrimidin-4-ones and 1,5-dihydro-4H-pyrazolo[4,3-c]pyridin-4-ones as PDE1 inhibitors” (H. Lundbeck A/S, priority 2016, dated 2021).

Assay type in all cases: biochemical
One experiment has as its target PDE1C (Homo sapiens (Human), UniProt Q14123). Kind of experiment: PDE1 inhibition assay (PDE1C), SPA. The note with it: 15 nM tritium labelled cAMP.
For a further experiment, the target named is PDE1A (Homo sapiens (Human), UniProt P54750). Kind of experiment: PDE1 inhibition assay (PDE1A), SPA. The note with it: 15 nM tritium labelled cAMP.
PDE1A, sequence (P54750 whole entry): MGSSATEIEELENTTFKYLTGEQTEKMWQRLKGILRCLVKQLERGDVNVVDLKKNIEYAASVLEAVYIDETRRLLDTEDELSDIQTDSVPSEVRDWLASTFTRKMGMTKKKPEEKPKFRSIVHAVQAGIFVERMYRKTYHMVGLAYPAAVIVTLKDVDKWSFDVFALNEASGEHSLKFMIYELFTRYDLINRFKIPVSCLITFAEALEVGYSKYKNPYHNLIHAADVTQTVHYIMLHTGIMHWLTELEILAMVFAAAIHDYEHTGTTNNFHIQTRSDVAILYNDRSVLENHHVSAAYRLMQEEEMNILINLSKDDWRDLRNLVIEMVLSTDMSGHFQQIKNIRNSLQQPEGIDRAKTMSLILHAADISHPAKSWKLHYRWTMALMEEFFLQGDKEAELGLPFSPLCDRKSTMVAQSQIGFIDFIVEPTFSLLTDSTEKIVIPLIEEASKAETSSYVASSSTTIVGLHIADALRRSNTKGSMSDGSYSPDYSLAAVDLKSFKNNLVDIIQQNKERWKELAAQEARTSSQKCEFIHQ
For another experiment, the target named is PDE9 (Homo sapiens (Human), UniProt O76083). As to the kind of experiment: PDE9 inhibition assay, SPA.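 Also: enzyme reaction incubated for 1 h, then stopped by adding yttrium silicate scintillation proximity beads for the read-out.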 Conditions: 10 microM compound; 10 nM 3H-cAMP.
PDE9, sequence (O76083 whole entry): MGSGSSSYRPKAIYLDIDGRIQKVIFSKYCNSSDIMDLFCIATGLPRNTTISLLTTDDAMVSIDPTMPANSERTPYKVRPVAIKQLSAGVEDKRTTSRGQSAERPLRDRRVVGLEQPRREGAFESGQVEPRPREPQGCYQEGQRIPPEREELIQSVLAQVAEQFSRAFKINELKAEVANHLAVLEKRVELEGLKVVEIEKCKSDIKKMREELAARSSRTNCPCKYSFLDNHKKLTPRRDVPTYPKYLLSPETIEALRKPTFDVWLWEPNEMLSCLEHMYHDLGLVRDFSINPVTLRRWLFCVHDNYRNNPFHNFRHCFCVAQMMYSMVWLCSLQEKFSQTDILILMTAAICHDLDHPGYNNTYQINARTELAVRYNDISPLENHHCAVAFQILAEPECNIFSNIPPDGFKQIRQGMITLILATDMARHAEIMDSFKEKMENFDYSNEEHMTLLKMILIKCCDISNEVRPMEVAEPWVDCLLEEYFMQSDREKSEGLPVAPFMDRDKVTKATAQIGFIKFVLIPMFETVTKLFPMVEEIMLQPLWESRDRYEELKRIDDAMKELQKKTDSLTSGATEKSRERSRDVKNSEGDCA
The next experiment has as its target PDE1B (Homo sapiens (Human), UniProt Q01064). Kind of experiment: PDE1 inhibition assay (PDE1B), SPA. Conditions: 15 nM tritium labelled cAMP.

PDE1B, sequence (Q01064 whole entry): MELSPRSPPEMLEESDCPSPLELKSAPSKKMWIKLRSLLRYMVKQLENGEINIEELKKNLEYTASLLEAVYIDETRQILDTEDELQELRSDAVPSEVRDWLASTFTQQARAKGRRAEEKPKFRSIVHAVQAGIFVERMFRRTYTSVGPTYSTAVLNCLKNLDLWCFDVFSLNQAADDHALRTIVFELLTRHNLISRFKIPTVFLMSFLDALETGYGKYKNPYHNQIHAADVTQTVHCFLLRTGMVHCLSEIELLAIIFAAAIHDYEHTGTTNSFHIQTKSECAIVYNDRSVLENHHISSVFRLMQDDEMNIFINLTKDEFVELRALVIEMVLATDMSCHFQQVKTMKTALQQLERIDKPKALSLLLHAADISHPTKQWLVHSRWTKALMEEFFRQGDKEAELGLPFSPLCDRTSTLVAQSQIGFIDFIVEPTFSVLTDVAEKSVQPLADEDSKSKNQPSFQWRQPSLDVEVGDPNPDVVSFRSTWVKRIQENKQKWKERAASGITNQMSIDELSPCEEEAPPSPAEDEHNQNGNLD
PDE1C, sequence (Q14123 whole entry): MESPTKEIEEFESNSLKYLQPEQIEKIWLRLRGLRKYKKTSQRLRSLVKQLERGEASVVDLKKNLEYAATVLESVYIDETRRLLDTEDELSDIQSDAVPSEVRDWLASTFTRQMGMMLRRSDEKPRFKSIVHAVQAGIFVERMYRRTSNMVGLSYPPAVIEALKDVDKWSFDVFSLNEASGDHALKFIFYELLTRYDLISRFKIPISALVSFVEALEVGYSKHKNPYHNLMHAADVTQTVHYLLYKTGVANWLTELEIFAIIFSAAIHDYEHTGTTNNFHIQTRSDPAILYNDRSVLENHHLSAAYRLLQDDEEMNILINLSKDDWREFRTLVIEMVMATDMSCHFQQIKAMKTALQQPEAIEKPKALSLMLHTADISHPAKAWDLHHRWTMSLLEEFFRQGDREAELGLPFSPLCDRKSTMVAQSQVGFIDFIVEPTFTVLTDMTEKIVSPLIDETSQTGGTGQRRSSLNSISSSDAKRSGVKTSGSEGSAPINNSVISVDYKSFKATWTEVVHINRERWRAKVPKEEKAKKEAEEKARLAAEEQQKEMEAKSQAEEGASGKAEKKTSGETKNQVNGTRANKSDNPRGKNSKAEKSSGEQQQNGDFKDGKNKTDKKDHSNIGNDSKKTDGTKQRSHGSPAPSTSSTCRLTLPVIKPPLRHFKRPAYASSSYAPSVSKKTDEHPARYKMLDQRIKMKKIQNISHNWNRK
Description for PDE1A: (§1) Reactions were initiated by addition of the cyclic nucleotide substrate, and reactions were allowed to proceed for 1 hr at room temperature before being terminated through mixing with 20 μL (0.2 mg) yttrium silicate SPA beads (PerkinElmer). The beads were allowed to settle for 1 hr in the dark before the plates were counted in a Wallac 1450 Microbeta counter.
Description for PDE1B: Reactions were initiated by addition of the cyclic nucleotide substrate, and reactions were allowed to proceed for 1 hr at room temperature before being terminated through mixing with 20 μL (0.2 mg) yttrium silicate SPA beads (PerkinElmer).
Description for PDE1C: as §1
Description for PDE9: Reactions are initiated by addition of the cyclic nucleotide substrate, and reactions are allowed to proceed for one hr at room temperature before being terminated through mixing with 15 μL 8 mg/mL yttrium silicate SPA beads (Amersham).
Following 1 hr incubation the reactions were terminated by addition of 15 uL 8 mg/mL yttrium silicate SPA beads (Amersham).

`COc1ccc(Cn2c(C)nc3c(cnn3C3CCOCC3)c2=O)cc1` [Example 2, 5-(4-methoxybenzyl)-6-methyl-1-(tetrahydro-2H-pyran-4-yl)-1H-pyrazolo[3,4-d]pyrimidin-4(5H)-one]: the IC50 was determined as 0.074 µM against PDE1C, 0.132 µM on PDE1A and 0.062 µM against PDE1B. The inhibition at 10 µM at PDE9 turned out to be 10%.
For `Cc1nc2c(cnn2C2CCOCC2)c(=O)n1CC1CCCCC1` [Example 3, 5-(cyclohexylmethyl)-6-methyl-1-tetrahydropyran-4-yl-pyrazolo[3,4-d]pyrimidin-4-one] the same measures were 0.029 µM, 0.172 µM, 0.103 µM and 29%.
In the case of `CCCn1ncc2c(=O)n(Cc3ccc(OC)cc3)c(C)nc21` [Example 4, 5-[(4-methoxyphenyl)methyl]-6-methyl-1-propyl-pyrazolo[3,4-d]pyrimidin-4-one], the results for the IC50 against PDE1C, against PDE1A and against PDE1B were 0.072 µM, 0.108 µM and 0.068 µM, respectively. In addition, the inhibition at 10 µM at PDE9 was found to be 13%.
On the same counts, the results for `CCCn1ncc2c(=O)n(CC3CCCCC3)c(C)nc21` [Example 5, 5-(cyclohexylmethyl)-6-methyl-1-propyl-pyrazolo[3,4-d]pyrimidin-4-one] are 0.036 µM, 0.111 µM, 0.031 µM and -16%.
Consider `CCc1nc2c(cnn2C2CCOCC2)c(=O)n1Cc1ccc(OC)cc1` [Example 6, 6-ethyl-5-[(4-methoxyphenyl)methyl]-1-tetrahydropyran-4-yl-pyrazolo[3,4-d]pyrimidin-4-one], for which the results for the IC50 at PDE1C, against PDE1A and at PDE1B were 0.14 µM, 0.107 µM and 0.08 µM, respectively. Moreover, on PDE9, the inhibition at 10 µM turned out to be 2%.
For `COCc1nc2c(cnn2C2CCOCC2)c(=O)n1Cc1ccc(OC)cc1` [Example 7, 6-(methoxymethyl)-5-[(4-methoxyphenyl)methyl]-1-tetrahydropyran-4-yl-pyrazolo[3,4-d]pyrimidin-4-one] the same measures were 0.345 µM, 0.325 µM, 0.181 µM and -12%.
For `COc1ccc(Cn2c(C(C)C)nc3c(cnn3C3CCOCC3)c2=O)cc1` [Example 8, 6-isopropyl-5-[(4-methoxyphenyl)methyl]-1-tetrahydropyran-4-yl-pyrazolo[3,4-d]pyrimidin-4-one] the same measures were 1.32 µM, 0.751 µM, 0.211 µM and 7%.
In the case of `Cc1cc2c(cnn2C2CCOCC2)c(=O)n1Cc1cccc(Cl)c1` [Example 14, 5-[(3-chlorophenyl)methyl]-6-methyl-1-tetrahydropyran-4-yl-pyrazolo[4,3-c]pyridin-4-one], the figures for the IC50 against PDE1C, at PDE1A and at PDE1B were 0.095 µM, 1.3 µM and 0.413 µM, respectively. The inhibition at 10 µM against PDE9 is -15%.
On the same counts, the results for `Cc1cc2c(cnn2C2CCOCC2)c(=O)n1Cc1ccc(F)cc1` [Example 15, 5-[(4-fluorophenyl)methyl]-6-methyl-1-tetrahydropyran-4-yl-pyrazolo[4,3-c]pyridin-4-one] are 0.204 µM, 1.24 µM, 0.258 µM and -13%.
Take `Cc1ccc(Cn2c(C)cc3c(cnn3C3CCOCC3)c2=O)cc1` [Example 16, 6-methyl-5-(p-tolylmethyl)-1-tetrahydropyran-4-yl-pyrazolo[4,3-c]pyridin-4-one]: the results for the IC50 against PDE1C, on PDE1A and against PDE1B were 0.496 µM, 0.4 µM and 0.071 µM, respectively. Further, on PDE9, the inhibition at 10 µM was -1%.
On the same counts, the results for `Cc1cc2c(cnn2C2CCOCC2)c(=O)n1Cc1ccc2c(c1)OCO2` [Example 17, 5-(1,3-benzodioxol-5-ylmethyl)-6-methyl-1-tetrahydropyran-4-yl-pyrazolo[4,3-c]pyridin-4-one] are 0.662 µM, 0.429 µM, 0.154 µM and -2%.
In the case of `CCCn1ncc2c(=O)n(Cc3ccc(OC)cc3)c(C)cc21` [Example 20, 5-(4-methoxybenzyl)-6-methyl-1-propyl-1,5-dihydro-4H-pyrazolo[4,3-c]pyridin-4-one], the 50% inhibitory concentration (IC50) worked out at 0.233 µM on PDE1C, 0.29 µM at PDE1A and 0.082 µM on PDE1B. The inhibition at 10 µM on PDE9 stood at 19%.
Turning to `COc1ccc(Cn2c(C)cc3c(cnn3C(C)C)c2=O)cc1` [Example 21, 1-isopropyl-5-[(4-methoxyphenyl)methyl]-6-methyl-pyrazolo[4,3-c]pyridin-4-one], the IC50 at PDE1C was found to be 0.134 µM; at PDE1A, 0.049 µM; on PDE1B it was 0.037 µM. For the same compound, the inhibition at 10 µM against PDE9 was -14%.
On the same counts, the results for `COc1ccc(Cn2c(C)cc3c(cnn3C3CCOC3)c2=O)cc1` (stereo not drawn) [Example 22, 5-[(4-methoxyphenyl)methyl]-6-methyl-1-tetrahydrofuran-3-yl-pyrazolo[4,3-c]pyridin-4-one] are 1.21 µM, 1.69 µM, 0.569 µM and 8%.
For `COc1ccc(Cn2c(C)cc3c(cnn3C3CC3)c2=O)cc1` [Example 23, 1-cyclopropyl-5-[(4-methoxyphenyl)methyl]-6-methyl-pyrazolo[4,3-c]pyridin-4-one] the same measures were 0.975 µM, 0.543 µM, 0.255 µM and -6%.
For `CCn1ncc2c(=O)n(Cc3ccc(OC)cc3)c(C)cc21` [Example 24, 1-ethyl-5-[(4-methoxyphenyl)methyl]-6-methyl-pyrazolo[4,3-c]pyridin-4-one] the same measures were 1.33 µM, 1.11 µM, 0.329 µM and 19%.
On to `COc1ccc(Cn2c(C)cc3c(cnn3C3COC3)c2=O)cc1` [Example 28, 5-(4-methoxybenzyl)-6-methyl-1-(oxetan-3-yl)-1,5-dihydro-4H-pyrazolo[4,3-c]pyridin-4-one], for which the IC50 at PDE1C was 2.19 µM; on PDE1B it was 0.704 µM. In addition, the inhibition at 10 µM at PDE1A (read-out: PDE1A, % inhibition @10 μM, 10 μM compound) came out at 63%; against PDE9, 14%.
In the case of `COc1ccc(Cn2c(C)cc3c(cnn3C3(C)CCOCC3)c2=O)cc1` [Example 29, 5-(4-methoxybenzyl)-6-methyl-1-(4-methyltetrahydro-2H-pyran-4-yl)-1,5-dihydro-4H-pyrazolo[4,3-c]pyridin-4-one], the results for the IC50 against PDE1C, at PDE1A and on PDE1B were 0.174 µM, 0.119 µM and 0.087 µM, respectively. Besides, at PDE9, the inhibition at 10 µM came out at 26%.

By IC50 is commonly meant the concentration that inhibits the measured activity by half. A higher IC50 goes with lower potency. A word on the inhibition: it is the change of the read-out against control, counted positive when it falls.
